Paper PMC6375640, “Genomic insights into neonicotinoid sensitivity in the solitary bee Osmia bicornis” (PLoS Genetics, 2019)
pIC50: −log10 of the molar value. Converted amounts (≈) assume the structure as drawn.

Legend:
[1] = test system: Drosophila melanogaster control line; test: in vivo; details: for RR (resistance ratio): Control strain (reference); for Slope (+/- SE): log-dose probit mortality, Control strain
Description: (§1) CYP9BU1 and CYP9BU2 were codon optimised for D. melanogaster expression and cloned into the pUASTattB plasmid (GenBank: EF362409.1). These constructs were used to create transgenic fly lines, which were then tested in insecticide bioassays against imidacloprid and thiacloprid, as described previously.

[2] = in vivo; details: in vivo; Control strain
Description: as §1

[3] = test system: O. bicornis; test: PBO (piperonyl butoxide) synergist bioassay; type: in vivo, Osmia bicornis; details: with vs without PBO pre-treatment one hour before insecticide
Description: (§2) Acute contact toxicity bioassays on unmated 2 day old female O. bicornis were conducted following the OECD Honey Bee Test guidelines, with modification where necessary. Bees were anaesthetised with CO2 for 5–10 seconds to allow application of insecticide. 1 μL of technical grade imidacloprid was applied to the dorsal thorax of each bee at concentrations of 0.0001, 0.001, 0.01, 0.1, 1, and 10 μg/μL. No mortality was observed using the same concentrations of thiacloprid so a limit test of 100 μg/bee was performed. Control bees were treated with 1 μL 100% acetone. Three replicates of 10 bees were tested for each concentration. Tested individuals were placed back into cages in the incubator (25°C, 55% RH, L16:D8), with five bees per cage. In piperonyl butoxide (PBO) synergist bioassays, bees were first treated with the maximum sublethal dose (in this case 100 μg/μL) of PBO followed by insecticide one hour later. Synergist bioassays included an additional control group treated only with PBO. Mortality was assessed 48 and 72 hours after application. Probit analysis was used to calculate the LD50 values, slope, and synergism ratio (where relevant) for each insecticide (Genstat v.18 (VSNI 2015)).

[4] = test system: adult female O. bicornis gene expression; test: RNAseq of bees after sublethal oral neonicotinoid exposure (P450 induction); type: in vivo, Osmia bicornis; details: for induction of P450 expression: 24 h after exposure to LD10; for number of genes significantly upregulated: 24 h after exposure to LD10, corrected p <0.05 vs solvent control
Description: (§3) To examine if P450 expression in O. bicornis is induced by exposure to sublethal concentrations of neonicotinoids, imidacloprid and thiacloprid were dissolved in acetone to the highest concentration possible, before being diluted to the LD10 of imidacloprid (0.0001 μg/bee) and thiacloprid (0.01 μg/bee) with 50% sucrose (w/v) in order to limit the amount of acetone consumed by bees. Prior to commencing oral bioassays bees underwent a 24 hour ‘training’ period in the Nicot cages to enable them to learn to feed from the syringes. This was followed by a 16h starvation period to encourage subsequent feeding. 15μL of the insecticide/sucrose solution was supplied orally to the bees in disposable plastic syringes. Control bees were fed 15μL of a sucrose solution containing the same volume of acetone used to make up the insecticide/sucrose solutions. When all of the solution had been consumed the bees were fed ab libitum with a 50% sucrose solution for 24 h. After this period for each condition four replicates comprising 5 bees per replicate were snap frozen in liquid nitrogen and RNA extracted from each replicate as above. RNA was used as a template for the generation of barcoded libraries (TrueSeq RNA library preparation, Illumina) which were sequenced across two lanes of an Illumina HiSeq2500 flowcell (100 bp paired end reads). Sequencing was carried out by Earlham Institute, Norwich, UK. To identify genes differentially expressed between control and the treatment the Tuxedo workflow was used to map with TopHat against the annotated reference genome, to estimate gene expression with Cufflinks and test for differential expression with Cuffdiff.

[5] = test system: transgenic Drosophila melanogaster expressing CYP9BU1; test: Insecticide bioassay on transgenic flies expressing CYP9BU1; type: in vivo; details: for RR (resistance ratio): CYP9BU1 strain vs control line; for sensitivity relative to control flies (less sensitive): flies expressing CYP9BU1 vs control flies without transgene
Description: as §1

[6] = test system: CYP9BU1; test: as above; type: in vivo, Drosophila melanogaster; details: transgenic line expressing CYP9BU1, Drosophila melanogaster, in vivo; CYP9BU1 strain
Description: as §1

[7] = test system: O. bicornis; test: Sublethal dose (LD10) used for oral exposure; type: in vivo, Osmia bicornis; details: used as sublethal dose, supplied orally in 50% sucrose
Description: as §3, with “To identify genes differentially expressed between control and the treatment the Tuxedo workflow was used to map with TopHat against the annotated reference genome, to estimate gene expression with Cufflinks and test for differential expression with Cuffdiff.” left out

[8] = test system: CYP9BU2; test: Insecticide bioassay on transgenic flies expressing CYP9BU2; type: in vivo, Drosophila melanogaster; details: transgenic line expressing CYP9BU2, Drosophila melanogaster, in vivo; CYP9BU2 strain
Description: as §1

[9] = test system: transgenic Drosophila melanogaster expressing CYP9BU2; test: as above; type: in vivo; details: for RR (resistance ratio): CYP9BU2 strain vs control line; for sensitivity relative to control flies: flies expressing CYP9BU2 vs control flies without transgene
Description: as §1

[10] = test system: O. bicornis; test: Acute contact toxicity bioassay; type: in vivo, Osmia bicornis; details: for LD50: acute contact, applied to dorsal thorax, thiacloprid limit test 100 μg/bee; for toxicity classification according to U.S. EPA categories: contact exposure
Description: O. bicornis cocoons were purchased from Dr Schubert Plant Breeding (Landsberg, Germany) and stored at 4°C in constant darkness. To trigger emergence cocoons were transferred to an incubator (25°C, 55% RH, L16:D8) with emerged bees fed ab libitum with Biogluc (62% sugar concentration consisting of 37.5% fructose, 34.5% glucose, 25% sucrose, 2% maltose, and 1% oligosaccharides) (Biobest), soaked into a piece of cotton wool inside a plastic dish. Males (which are usually first to emerge) were removed from cages and discarded to reduce any unnecessary stress to the females used in insecticide bioassays.
as §2

[11] = test system: CYP9BU2; test: Metabolism assay with recombinant P450/CPR microsomes, UPLC-MS/MS; details: for metabolism to 5-hydroxy form: 25 μM insecticide, 5 pmol P450, NADPH, 1 hour, 30°C
Text: (§4) O. bicornis P450 genes and house fly NADPH-dependent cytochrome P450 reductase (CPR) (GenBank accession no. Q07994) genes were codon optimised for expression in lepidopteran cell lines, synthesized (Geneart, CA, USA) and inserted into the pDEST8 expression vector (Invitrogen). The PFastbac1 vector with no inserted DNA was used to produce a control virus. The recombinant baculovirus DNA was constructed and transfected into Trichoplusia ni (High five cells, Thermo Fisher) using the Bac-to-Bac baculovirus expression system (Invitrogen) according to the manufacturer’s instructions. The titre of the recombinant virus was determined following protocols of the supplier. High Five cells grown to a density of 2 x 10^6 cells ml^-1 were co-infected with recombinant baculoviruses containing each bee P450 and CPR with a range of MOI (multiplicity of infection) ratios to identify the optimal conditions. Control cells were co-infected with the baculovirus containing vector with no insert (ctrl-virus) and the recombinant baculovirus expressing CPR using the same MOI ratios. Ferric citrate and δ-aminolevulinic acid hydrochloride were added to a final concentration of 0.1 mM at the time of infection and 24 h after infection to compensate the low levels of endogenous heme in the insect cells. After 48 h, cells were harvested, washed with PBS, and microsomes of the membrane fraction prepared according to standard procedures and stored at −80°C [41]. Briefly, pellets were homogenised for 30 s in 0.1 M Na/K-phosphate buffer, pH 7.4 containing 1 mM EDTA and DTT and 200 mM sucrose using a Fastprep (MP Biomedicals), filtered through miracloth and centrifuged for 10 min at 680g at 4°C. The supernatant was then centrifuged for 1 h at 100,000g at 4°C, with the pellet subsequently resuspended in 0.1M Na/K-phosphate buffer pH 7.6 containing 1 mM EDTA and DTT and 10% glycerol using a Dounce tissue grinder. P450 expression and functionality was estimated by measuring CO-difference spectra in reduced samples using a Specord 200 Plus Spectrophotometer (Analytik Jena) and scanning from 500 nm to 400 nm. The protein content of samples was determined using Bradford reagent (Sigma) and bovine serum albumin (BSA) as a reference.
(§5) Metabolism of thiacloprid and imidacloprid was assessed by incubating recombinant P450/CPR (5 pmol/well) or control virus/CPR (5 pmol/well) with each insecticide (25 μM) in the presence of an NADPH regeneration system at 30±1°C, shaking, for 1 hour. […] The peak integrals were calibrated externally against a standard calibration curve.

[12] = test system: CYP9BU1; test: as above; details: for metabolism to 5-hydroxy form: 25 μM insecticide, 5 pmol P450, NADPH, 1 hour, 30°C
Text: as §4, §5

[13] = test system: O. bicornis cuticle; test: Cuticular penetration of radiolabelled insecticide (pharmacokinetic study); type: in vivo, Osmia bicornis; details: 24 h after application to dorsal thorax
Description: Bees were anaesthetised with CO2 for 5–10 seconds to allow application of insecticide. 5,000 ppm of [^14C]imidacloprid or [^14C]thiacloprid was applied to the dorsal thorax of each bee using a Hamilton repeating dispenser. Three replicates of five bees were placed into cages and fed a 50% sucrose solution from vertically hanging 2 ml syringes. Control bees were treated with acetone. Radiolabelled insecticide was rinsed off of each group of bees at set time intervals (0, 2, 4 and 24 hours after application) with acetonitrile water (90:10) three times. The […] bees were then individually combusted at 900°C in an Ox 120c oxidizer (Harvey Instruments Co., USA) followed by liquid scintillation counting of the released ^14CO2 in an alkaline scintillation cocktail (Ultima Gold, PerkinElmer) using a liquid scintillation analyser (Perkin Elmer Tri-Carb 2910 TR). The levels of excreted [^14C]imidacloprid or [^14C]thiacloprid, and/or metabolites, were measured by wiping cages with filter papers dipped in acetone and 0.5 mL aliquots of cuticular rinse or filter papers were added to 3 mL of scintillation fluid cocktail and the radioactivity was quantified by liquid scintillation analysis as above. An unpaired t-test was used to compare the penetration of the two compounds at each time point.

[14] = molecular target: O. bicornis nAChRs; test: Radioligand competition binding, [3H]imidacloprid displacement from head membrane preparations; set-up: species or system Osmia bicornis; details: 576 pM radioligand, 60 min room temperature
Description: [^3H]imidacloprid (specific activity 1.406 GBq μmol^−1) displacement studies were conducted using membrane preparations isolated from frozen (−80°C) O. bicornis heads, following previously published protocols. Briefly, bee heads weighing 10 g were homogenized in 200 ml ice-cold 0.1 M potassium phosphate buffer, pH 7.4 containing 95 mM sucrose using a motor-driven Ultra Turrax blender. […] Assays were performed in a 96-well microtitre plate with bonded GF/C filter membrane (Packard UniFilter-96, GF/C) and consisted of 200 μl of homogenate (0.48 mg protein), 25 μl of [^3H]imidacloprid (576 pM) and 25 μl of competing ligand. Ligand concentrations used ranged from 0.001 to 10 000 nM and were tested in triplicate per competition assay. The assay was started by the addition of homogenate and incubated for 60 min at room temperature. Bound [^3H]imidacloprid was quantified by filtration into a second 96-well filter plate (conditioned with ice-cold 100 mM potassium phosphate buffer, pH 7.4 (including BSA 5 g litre−1)) using a commercial cell harvester (Brandel). […] Each well was then loaded with 25 μl of scintillation cocktail (Microszint-O-Filtercount, Packard) and the plate counted in a Topcount scintillation counter (Packard). Non-specific binding was determined using a final concentration of 10 μM unlabelled imidacloprid. […]

[15] = production of hydroxy metabolite per pmol P450

Compound | RR (resistance ratio) [1] | Slope (+/- SE) [1] | LC50 [2] | change in sensitivity after PBO pre-treatment [3] | induction of P450 expression [4] | number of genes significantly upregulated [4] | RR (resistance ratio) [5] | sensitivity relative to control flies (less sensitive) [5] | LC50 [6] | LD10 [7] | LC50 [8] | RR (resistance ratio) [9] | sensitivity relative to control flies [9] | LD50 ([10]; adult female bees) | toxicity classification according to U.S. EPA categories [10] | metabolism to 5-hydroxy form [11] | metabolism to 5-hydroxy form [12] | final uptake through the cuticle [13] | pIC50 [14] | other results
O=[N+]([O-])NC1=NCCN1Cc1ccc(Cl)nc1 [imidacloprid] | 1 | 1.7 +/- 0.12 | 165 mg/L (≈ 645 µM) | No significant difference | no P450 showed a significant increase in expression | 27 genes | 0.5 | no significant differences in sensitivity | 85.9 mg/L (≈ 336 µM) | 0.0001 μg/bee | 135 mg/L (≈ 530 µM) | 0.8 | no significant differences in sensitivity | 0.046 μg/bee | highly toxic | metabolise these compounds to their hydroxylated forms | metabolise these compounds to their hydroxylated forms | 27% | 8.08 | Slope (+/- SE) ([5]; log-dose probit mortality, CYP9BU1 strain): 1.3 +/- 0.13; Slope (+/- SE) ([9]; log-dose probit mortality, CYP9BU2 strain): 1.5 +/- 0.14; fold more sensitive to imidacloprid than thiacloprid ([10]; adult female bees, ratio of contact LD50): > 2,000 fold
N#C/N=C1\SCCN1Cc1ccc(Cl)nc1 [thiacloprid] | 1 | 1.2 +/- 0.14 | 17 mg/L (≈ 67.4 µM) | > 7 fold | no P450 showed a significant increase in expression | 16 genes | 3.8 | ~ 4 times | 65.7 mg/L (≈ 260 µM) | 0.01 μg/bee | 17.5 mg/L (≈ 69.2 µM) | 1.1 | no significant resistance | > 100 μg/bee | practically non-toxic | metabolise these compounds to their hydroxylated forms | metabolise these compounds to their hydroxylated forms | 28% | 8.62 | mortality ([10]; 1 μL at 0.0001-10 μg/μL, contact): No mortality; efficiency of metabolism relative to imidacloprid [11, 15]: significantly greater efficiency than imidacloprid; efficiency of metabolism relative to imidacloprid [12, 15]: significantly greater efficiency than imidacloprid
